Test results reported in ChEMBL document CHEMBL5113548, “Novel Lactams as Cbl-b Inhibitors for Treating Cancer” (ACS Med Chem Lett, 2022).

Target: E3 ubiquitin-protein ligase CBL-B (Homo sapiens, UniProt Q13191)
Assay: Inhibition of Cbl-b (unknown origin) assessed as reduction in LCK ubiquitination preincubated for 60 mins followed by kinase mix addition measured after 90 mins by TR-FRET assay

Sequence of E3 ubiquitin-protein ligase CBL-B (Q13191 whole entry): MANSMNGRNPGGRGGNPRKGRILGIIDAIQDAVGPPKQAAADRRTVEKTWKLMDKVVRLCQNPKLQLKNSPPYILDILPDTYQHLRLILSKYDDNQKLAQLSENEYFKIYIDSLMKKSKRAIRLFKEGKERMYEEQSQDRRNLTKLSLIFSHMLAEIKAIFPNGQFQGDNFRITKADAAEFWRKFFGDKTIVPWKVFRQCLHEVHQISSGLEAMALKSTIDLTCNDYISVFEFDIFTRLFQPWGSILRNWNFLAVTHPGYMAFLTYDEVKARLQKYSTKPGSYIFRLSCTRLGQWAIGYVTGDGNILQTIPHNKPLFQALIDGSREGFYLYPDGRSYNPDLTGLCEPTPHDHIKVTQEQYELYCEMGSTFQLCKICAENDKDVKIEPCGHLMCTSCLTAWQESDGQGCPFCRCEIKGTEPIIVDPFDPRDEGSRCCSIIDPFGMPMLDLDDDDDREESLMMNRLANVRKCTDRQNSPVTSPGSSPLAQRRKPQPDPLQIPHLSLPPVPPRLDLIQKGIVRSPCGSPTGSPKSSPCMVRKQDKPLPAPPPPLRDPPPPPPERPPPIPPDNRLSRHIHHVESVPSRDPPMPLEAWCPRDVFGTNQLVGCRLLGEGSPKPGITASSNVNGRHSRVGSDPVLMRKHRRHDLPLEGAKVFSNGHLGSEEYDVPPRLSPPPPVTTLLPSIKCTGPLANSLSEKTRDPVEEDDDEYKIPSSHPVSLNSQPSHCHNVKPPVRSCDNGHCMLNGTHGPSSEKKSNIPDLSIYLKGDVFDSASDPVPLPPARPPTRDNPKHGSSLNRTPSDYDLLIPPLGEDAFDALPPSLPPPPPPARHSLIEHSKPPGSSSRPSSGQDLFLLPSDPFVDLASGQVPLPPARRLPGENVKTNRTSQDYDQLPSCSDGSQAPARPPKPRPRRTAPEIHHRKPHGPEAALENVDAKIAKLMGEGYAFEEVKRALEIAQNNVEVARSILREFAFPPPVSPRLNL

SMILES	IC50 [nM]
C[C@@H](NC1(C)CCC1)c1cc2c(c(C(F)(F)F)c1)CN(c1cccc(C3(Cc4nncn4C)CC(F)(F)C3)c1)C2=O	5.8
C[C@@H](NC1(C)CCC1)c1cc2c(c(C(F)(F)F)c1)CN(c1cccc(C3([C@@H](F)c4nncn4C)COC3)c1)C2=O	6.7
CC(C)[C@@H]1CN(C)CCN1Cc1cc2c(c(C(F)(F)F)c1)CN(c1cc(C3(Cc4nncn4C)COC3)cc(OC3CCCC3)n1)C2=O	5.5
